Calls of active or inactive are those of the source.
Key:
[1] = target: Glucose-6-phosphate 1-dehydrogenase (Homo sapiens, UniProt P11413); assay: human G6PD enzyme inhibitors, dose response, selectivity assay for P. falciparum G6PD inhibitor project, biochemical, fluorescence (AID 504792); format: functional
Bcl-2-related protein A1 = target: T1, Bcl-2-related protein A1 (Mus musculus, UniProt Q07440); format: functional;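 further: confirmatory dose–response counterscreen on Bfl-1, used to check hits from a UBC13 polyubiquitin inhibitor campaign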
T1 sequence (Q07440 whole entry): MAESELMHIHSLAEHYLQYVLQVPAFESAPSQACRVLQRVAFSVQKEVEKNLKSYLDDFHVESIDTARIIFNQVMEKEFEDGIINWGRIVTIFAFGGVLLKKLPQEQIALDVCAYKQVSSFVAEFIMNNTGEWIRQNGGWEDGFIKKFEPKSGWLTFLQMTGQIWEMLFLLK

[2] = target: T2, Ubiquitin-conjugating enzyme E2 N (Homo sapiens, UniProt P61088); format: functional
T2 sequence (P61088 whole entry): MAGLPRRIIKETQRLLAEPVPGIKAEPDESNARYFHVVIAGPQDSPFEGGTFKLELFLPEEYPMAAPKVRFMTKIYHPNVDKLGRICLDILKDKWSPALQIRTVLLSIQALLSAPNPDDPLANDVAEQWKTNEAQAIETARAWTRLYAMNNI

[3] = target: T2, Ubiquitin-conjugating enzyme E2 N; format: functional; remark: listed apart in the source
Nonstructural protein 1 = Nonstructural protein 1 (Influenza A virus, UniProt Q194T2); format: functional, Influenza A virus (A/California/07/2009(H1N1))
[4] = Shn3 3'UTR reporter inhibitors, dose response, cell-based, Clone20 osteoblasts, firefly luciferase, cherry-picked (AID 624132); format: functional;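 further: firefly luciferase luminescence from reporter carrying the Shn3 3'UTR in osteoblasts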
[5] = HepG2 cell cytotoxicity, dose response, cytotoxicity control for Shn3 inhibitor project, CellTiter-Glo, cherry-picked (AID 624134); format: functional, cell-based
[6] = control 3'UTR Renilla luciferase suppression, dose response, counter-screen for Shn3 inhibitor project, cell-based, Clone20-Shn3RL, cherry-picked (AID 624133); format: functional
[7] = target: T3, Heat shock factor protein 1 (Mus musculus, UniProt P38532); assay: inhibition of MG132-induced HSE-luciferase signal, confirmation, cell-based, NIH3T3, luminescence, dose retest (AID 2382); format: functional;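 further: NIH3T3 fibroblasts with HSF1-driven luciferase reporter stressed by proteasome inhibitor MG132; luminescence from HSF1-driven luciferase expression after 8 hours of MG132 stress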
T3 sequence (P38532 whole entry): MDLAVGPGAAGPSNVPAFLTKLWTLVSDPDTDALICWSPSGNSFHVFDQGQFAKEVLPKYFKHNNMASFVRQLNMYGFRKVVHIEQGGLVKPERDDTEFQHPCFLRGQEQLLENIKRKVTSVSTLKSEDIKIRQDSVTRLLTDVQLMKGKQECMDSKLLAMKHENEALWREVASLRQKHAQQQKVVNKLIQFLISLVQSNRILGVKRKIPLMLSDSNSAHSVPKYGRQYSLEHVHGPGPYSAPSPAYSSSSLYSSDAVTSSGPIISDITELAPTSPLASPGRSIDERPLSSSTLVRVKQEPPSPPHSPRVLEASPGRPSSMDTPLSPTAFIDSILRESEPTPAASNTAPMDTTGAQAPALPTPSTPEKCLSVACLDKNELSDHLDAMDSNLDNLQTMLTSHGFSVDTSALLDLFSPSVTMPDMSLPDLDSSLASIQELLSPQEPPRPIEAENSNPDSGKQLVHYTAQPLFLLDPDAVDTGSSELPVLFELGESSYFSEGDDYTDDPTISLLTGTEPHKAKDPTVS

SUMO-activating enzyme = SUMO-activating enzyme (Homo sapiens, UniProt Q9UBT2); assay: SUMOylation inhibitor hit validation, confirmation, SUMOylation inhibitor project, biochemical, AlphaScreen (AID 2018); format: functional
[8] = target: T4, Short transient receptor potential channel 4 (Mus musculus, UniProt Q9QUQ5); assay: mouse TRPC4 channel activators, dose response, cell-based, HEK293 TRPC4/mu-opioid, Fluo-4 calcium (AID 434937); format: functional
T4 sequence (Q9QUQ5 whole entry): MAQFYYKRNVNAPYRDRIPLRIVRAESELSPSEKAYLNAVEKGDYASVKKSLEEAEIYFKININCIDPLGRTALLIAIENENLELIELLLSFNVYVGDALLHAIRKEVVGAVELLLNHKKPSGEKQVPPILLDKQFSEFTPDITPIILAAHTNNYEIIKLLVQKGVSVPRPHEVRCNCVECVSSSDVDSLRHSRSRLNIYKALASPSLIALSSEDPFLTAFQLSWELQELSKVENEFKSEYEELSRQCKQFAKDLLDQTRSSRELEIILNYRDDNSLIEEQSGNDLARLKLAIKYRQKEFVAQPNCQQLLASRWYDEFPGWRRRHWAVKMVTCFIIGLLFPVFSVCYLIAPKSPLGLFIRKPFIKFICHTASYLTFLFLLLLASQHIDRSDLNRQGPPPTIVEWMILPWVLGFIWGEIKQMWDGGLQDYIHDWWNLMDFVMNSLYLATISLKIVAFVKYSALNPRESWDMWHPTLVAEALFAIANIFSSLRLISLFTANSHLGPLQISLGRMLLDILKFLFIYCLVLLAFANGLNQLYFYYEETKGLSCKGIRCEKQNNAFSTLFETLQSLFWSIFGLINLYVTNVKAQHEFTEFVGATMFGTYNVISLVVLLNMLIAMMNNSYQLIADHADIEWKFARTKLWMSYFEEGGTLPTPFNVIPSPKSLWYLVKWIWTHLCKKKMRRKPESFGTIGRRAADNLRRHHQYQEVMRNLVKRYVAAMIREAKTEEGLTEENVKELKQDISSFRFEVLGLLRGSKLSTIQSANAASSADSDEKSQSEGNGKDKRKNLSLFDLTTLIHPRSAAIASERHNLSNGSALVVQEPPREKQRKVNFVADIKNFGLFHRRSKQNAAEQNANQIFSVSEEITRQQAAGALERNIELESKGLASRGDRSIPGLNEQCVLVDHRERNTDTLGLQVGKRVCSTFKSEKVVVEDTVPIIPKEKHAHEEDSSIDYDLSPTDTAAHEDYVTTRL

Cytochrome P450 1A2 = target: T5, Cytochrome P450 1A2 (Homo sapiens, UniProt P05177);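 further: PubChem cytochrome P450 panel assay, CYP1A2 panel member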
T5 sequence (P05177 whole entry): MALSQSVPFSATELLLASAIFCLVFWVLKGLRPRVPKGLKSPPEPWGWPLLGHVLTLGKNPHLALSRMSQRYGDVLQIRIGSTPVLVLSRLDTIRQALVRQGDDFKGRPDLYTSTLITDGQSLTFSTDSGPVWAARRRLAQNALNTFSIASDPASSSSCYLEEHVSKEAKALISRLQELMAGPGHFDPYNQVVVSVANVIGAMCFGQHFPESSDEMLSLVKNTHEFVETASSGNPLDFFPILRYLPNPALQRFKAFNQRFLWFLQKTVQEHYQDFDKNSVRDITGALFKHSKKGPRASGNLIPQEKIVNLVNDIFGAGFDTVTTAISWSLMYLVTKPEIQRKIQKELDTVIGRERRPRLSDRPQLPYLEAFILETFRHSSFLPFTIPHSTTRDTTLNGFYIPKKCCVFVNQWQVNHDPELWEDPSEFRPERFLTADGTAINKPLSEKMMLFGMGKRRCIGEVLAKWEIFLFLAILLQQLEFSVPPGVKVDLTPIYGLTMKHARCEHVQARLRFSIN

Cytochrome P450 2C9 [9] = target: T6, Cytochrome P450 2C9 (Homo sapiens, UniProt P11712)
Cytochrome P450 2C19 = Cytochrome P450 2C19 (Homo sapiens, UniProt P33261); assay: Cytochrome panel assay with activity outcomes. Panel member name: p450-cyp2c19 Compounds with AC50 equal or less than 10 uM are considered active; format: functional
Cytochrome P450 2C9 [10] = target: T6, Cytochrome P450 2C9; remark: listed apart in the source
Cytochrome P450 3A4 [11] = target: T7, Cytochrome P450 3A4 (Homo sapiens, UniProt P08684);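 further: CYP3A4 tested as one member of a cytochrome P450 panel screen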
Cytochrome P450 2D6 = Cytochrome P450 2D6 (Homo sapiens, UniProt P10635);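 further: CYP2D6 member of a cytochrome P450 panel assay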
[12] = target: T8, Mannose-6-phosphate isomerase (Homo sapiens, UniProt P34949); assay: human PMI inhibitors, high substrate, primary screen, biochemical, fluorescence intensity, high mannose 6-phosphate (AID 1220)
T8 sequence (P34949 whole entry): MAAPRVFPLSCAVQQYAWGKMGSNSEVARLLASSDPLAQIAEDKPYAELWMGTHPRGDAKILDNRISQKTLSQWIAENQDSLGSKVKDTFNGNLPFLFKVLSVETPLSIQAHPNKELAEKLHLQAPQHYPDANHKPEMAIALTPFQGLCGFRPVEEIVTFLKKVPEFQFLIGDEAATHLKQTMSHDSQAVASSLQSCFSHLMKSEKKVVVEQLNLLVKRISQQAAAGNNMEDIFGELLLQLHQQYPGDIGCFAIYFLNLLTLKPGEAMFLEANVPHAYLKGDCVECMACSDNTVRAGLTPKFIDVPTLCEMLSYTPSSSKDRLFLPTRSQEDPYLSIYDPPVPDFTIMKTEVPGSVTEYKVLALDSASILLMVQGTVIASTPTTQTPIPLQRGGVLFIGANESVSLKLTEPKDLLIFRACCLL

Cytochrome P450 3A4 [13] = target: T7, Cytochrome P450 3A4; remark: listed apart in the source
[14] = cytotoxicity in HEK-293T cells, dose response, cytotoxicity control for BCR NF-kB inhibitor project, luminescence, B-cell screen hits (AID 489021); format: functional, cell-based;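 further: HEK-293T cells carrying an NF-kB luciferase reporter; cells exposed to compound for about 14 hours before viability readout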
Genome polyprotein = Genome polyprotein (dengue virus type 2, UniProt P29990); assay: Dengue-2 NS5 methyltransferase inhibitors, primary screen, biochemical, confirmation dose response (AID 588689); format: functional
Sequence of Genome polyprotein (P29990 2492-3391 limits assumed): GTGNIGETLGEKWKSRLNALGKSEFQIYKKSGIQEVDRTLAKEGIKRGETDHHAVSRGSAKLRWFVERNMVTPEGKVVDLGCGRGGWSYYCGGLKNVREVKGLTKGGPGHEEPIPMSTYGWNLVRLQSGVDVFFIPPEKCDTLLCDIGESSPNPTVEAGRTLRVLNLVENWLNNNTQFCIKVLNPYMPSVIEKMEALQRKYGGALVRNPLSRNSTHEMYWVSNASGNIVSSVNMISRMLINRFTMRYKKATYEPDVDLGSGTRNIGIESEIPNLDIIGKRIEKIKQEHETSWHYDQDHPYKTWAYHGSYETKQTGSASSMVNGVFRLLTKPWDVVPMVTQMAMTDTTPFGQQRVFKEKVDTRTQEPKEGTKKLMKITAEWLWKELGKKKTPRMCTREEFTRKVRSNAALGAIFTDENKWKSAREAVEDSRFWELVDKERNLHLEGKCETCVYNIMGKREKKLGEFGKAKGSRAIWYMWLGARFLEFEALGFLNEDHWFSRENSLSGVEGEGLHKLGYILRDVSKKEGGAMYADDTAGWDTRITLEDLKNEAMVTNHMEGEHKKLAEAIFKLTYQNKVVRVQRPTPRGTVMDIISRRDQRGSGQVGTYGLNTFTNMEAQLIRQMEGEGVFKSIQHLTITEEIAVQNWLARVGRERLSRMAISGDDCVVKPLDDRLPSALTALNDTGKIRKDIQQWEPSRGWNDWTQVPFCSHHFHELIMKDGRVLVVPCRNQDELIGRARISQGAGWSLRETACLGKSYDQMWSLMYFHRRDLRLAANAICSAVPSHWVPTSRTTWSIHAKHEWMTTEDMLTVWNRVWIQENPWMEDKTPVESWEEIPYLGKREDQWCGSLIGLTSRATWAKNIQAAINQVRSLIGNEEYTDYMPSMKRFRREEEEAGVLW

Sequence of Nonstructural protein 1 (Q194T2 whole entry): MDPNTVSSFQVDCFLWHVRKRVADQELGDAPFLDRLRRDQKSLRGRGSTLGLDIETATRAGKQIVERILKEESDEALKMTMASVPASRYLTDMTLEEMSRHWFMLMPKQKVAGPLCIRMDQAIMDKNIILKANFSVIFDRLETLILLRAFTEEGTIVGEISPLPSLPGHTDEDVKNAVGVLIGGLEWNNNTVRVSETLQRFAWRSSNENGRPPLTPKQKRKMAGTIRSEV
Sequence of Glucose-6-phosphate 1-dehydrogenase (P11413 whole entry): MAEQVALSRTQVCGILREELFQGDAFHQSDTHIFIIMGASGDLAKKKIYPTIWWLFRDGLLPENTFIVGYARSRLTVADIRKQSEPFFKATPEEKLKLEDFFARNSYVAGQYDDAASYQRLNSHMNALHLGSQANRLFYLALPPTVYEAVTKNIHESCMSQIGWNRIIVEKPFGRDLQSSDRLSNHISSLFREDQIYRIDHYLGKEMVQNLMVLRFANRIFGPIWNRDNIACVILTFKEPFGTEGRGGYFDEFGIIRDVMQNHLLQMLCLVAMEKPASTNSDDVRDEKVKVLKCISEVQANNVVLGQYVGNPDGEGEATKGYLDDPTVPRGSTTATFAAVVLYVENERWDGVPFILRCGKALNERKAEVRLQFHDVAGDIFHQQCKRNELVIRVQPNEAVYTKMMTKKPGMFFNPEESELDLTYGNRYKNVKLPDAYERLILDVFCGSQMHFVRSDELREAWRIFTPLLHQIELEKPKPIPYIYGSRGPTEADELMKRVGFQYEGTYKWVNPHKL
T7 sequence (P08684 whole entry): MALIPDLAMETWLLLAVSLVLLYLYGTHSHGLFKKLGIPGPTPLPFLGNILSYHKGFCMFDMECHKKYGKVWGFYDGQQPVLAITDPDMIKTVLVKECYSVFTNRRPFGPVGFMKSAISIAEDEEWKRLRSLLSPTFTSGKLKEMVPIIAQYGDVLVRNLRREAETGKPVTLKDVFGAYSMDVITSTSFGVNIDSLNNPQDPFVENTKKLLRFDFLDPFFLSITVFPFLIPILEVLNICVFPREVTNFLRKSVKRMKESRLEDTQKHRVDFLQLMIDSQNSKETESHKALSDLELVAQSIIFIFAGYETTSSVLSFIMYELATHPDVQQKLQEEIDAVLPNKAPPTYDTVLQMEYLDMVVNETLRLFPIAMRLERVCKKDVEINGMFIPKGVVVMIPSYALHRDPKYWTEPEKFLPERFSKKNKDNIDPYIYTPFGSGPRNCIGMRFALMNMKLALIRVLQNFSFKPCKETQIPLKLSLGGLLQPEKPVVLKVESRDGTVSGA
Sequence of Cytochrome P450 2C19 (P33261 whole entry): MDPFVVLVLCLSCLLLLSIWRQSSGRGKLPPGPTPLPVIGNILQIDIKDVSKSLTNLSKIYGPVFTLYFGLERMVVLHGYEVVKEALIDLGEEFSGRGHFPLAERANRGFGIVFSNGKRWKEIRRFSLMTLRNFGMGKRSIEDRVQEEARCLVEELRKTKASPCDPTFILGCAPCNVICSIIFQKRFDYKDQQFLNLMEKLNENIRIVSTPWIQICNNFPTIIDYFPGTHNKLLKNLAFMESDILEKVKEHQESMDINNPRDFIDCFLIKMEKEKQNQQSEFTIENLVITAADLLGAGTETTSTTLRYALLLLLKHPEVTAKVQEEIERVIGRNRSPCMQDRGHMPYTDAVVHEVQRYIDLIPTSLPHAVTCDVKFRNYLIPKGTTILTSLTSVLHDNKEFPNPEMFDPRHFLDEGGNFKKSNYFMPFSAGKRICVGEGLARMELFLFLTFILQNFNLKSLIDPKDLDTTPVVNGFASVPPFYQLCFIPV
T6 sequence (P11712 whole entry): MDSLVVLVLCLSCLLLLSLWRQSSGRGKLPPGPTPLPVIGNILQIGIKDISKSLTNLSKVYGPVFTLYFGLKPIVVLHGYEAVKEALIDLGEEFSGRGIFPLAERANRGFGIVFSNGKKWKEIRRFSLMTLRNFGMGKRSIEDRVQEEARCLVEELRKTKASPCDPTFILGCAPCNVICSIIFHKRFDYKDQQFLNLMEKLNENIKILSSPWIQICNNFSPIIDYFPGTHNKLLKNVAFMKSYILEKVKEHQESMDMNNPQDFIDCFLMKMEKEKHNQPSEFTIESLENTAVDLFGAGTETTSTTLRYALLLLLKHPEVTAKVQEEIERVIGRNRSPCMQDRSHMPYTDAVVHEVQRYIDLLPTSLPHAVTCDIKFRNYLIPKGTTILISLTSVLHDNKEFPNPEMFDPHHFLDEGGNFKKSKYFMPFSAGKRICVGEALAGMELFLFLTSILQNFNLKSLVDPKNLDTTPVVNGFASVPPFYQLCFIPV
Sequence of SUMO-activating enzyme (Q9UBE0 whole entry): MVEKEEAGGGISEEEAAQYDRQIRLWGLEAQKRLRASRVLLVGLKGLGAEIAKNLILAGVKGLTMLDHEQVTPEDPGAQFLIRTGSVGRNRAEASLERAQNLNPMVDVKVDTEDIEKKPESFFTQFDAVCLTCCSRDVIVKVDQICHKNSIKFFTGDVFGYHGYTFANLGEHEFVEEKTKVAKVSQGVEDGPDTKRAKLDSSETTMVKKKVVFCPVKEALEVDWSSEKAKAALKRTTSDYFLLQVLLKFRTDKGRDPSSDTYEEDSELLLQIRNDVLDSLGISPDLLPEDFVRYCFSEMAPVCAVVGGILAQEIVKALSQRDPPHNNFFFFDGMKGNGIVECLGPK
Sequence of SUMO-activating enzyme (Q9UBT2 whole entry): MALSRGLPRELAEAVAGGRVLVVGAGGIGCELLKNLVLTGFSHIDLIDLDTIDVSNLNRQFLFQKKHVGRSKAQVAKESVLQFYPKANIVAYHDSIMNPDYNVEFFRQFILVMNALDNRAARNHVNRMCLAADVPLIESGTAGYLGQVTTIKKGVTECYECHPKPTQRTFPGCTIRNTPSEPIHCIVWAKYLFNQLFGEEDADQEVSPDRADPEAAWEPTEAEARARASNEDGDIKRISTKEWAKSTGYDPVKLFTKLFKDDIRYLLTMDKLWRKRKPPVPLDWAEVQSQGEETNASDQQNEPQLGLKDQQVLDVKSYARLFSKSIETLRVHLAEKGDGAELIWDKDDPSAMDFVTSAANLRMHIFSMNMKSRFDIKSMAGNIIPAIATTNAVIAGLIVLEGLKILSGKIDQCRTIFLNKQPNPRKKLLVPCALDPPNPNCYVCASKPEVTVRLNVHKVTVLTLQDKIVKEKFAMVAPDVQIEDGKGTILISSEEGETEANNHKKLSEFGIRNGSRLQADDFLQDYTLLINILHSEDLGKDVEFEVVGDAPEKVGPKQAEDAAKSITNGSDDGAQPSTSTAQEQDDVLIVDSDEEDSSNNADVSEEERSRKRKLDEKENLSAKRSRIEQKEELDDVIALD
Sequence of Cytochrome P450 2D6 (P10635 whole entry): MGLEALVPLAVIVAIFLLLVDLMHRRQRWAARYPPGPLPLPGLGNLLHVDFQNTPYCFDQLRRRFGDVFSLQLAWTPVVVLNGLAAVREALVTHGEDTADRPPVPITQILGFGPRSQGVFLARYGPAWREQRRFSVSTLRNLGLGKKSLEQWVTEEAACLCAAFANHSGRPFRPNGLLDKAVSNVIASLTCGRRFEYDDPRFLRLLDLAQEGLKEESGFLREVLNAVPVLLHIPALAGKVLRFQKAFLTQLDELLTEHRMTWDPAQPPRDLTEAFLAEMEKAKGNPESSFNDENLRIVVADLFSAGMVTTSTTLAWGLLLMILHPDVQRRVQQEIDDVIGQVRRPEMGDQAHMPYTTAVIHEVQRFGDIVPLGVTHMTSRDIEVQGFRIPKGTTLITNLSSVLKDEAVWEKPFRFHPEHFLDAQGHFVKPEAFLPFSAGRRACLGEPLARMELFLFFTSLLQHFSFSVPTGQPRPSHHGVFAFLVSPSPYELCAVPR

Cc1no[n+]([O-])c1COc1cccc(/C=N/Nc2nncn2N)c1
IC50 [1]: 58.7 µM (inactive)

O=C(Nc1ccc(C(=O)NCCCN2CCN(c3ccc(F)cc3)CC2)cc1)C1=CSCCO1
IC50 (Bcl-2-related protein A1): > 20 µM (inactive)
IC50 [2]: 12.5 µM (active)
IC50 [3]: 10.3 µM (active)

Oc1c(CN2CCCCC2)ccc2cccnc12
IC50 (Nonstructural protein 1): 2.05 µM (active)
AC50 [4]: 2.11 µM (active)
AC50 [5]: 52.3 µM (active)
AC50 [6]: 3.77 µM (active)

Cc1nn(CC(=O)NCCCN2CCC(Cc3ccccc3)CC2)c(=O)c2cc(-c3ccccc3)nn12
EC50 [7]: > 195 µM (not active)
IC50 (Bcl-2-related protein A1): > 20 µM (inactive)
IC50 [2]: 11.4 µM (active)
IC50 [3]: 4.59 µM (active)

NC(=O)CC(NC(=O)Cc1cccc2ccccc12)c1ccc(NC2CCCCCC2)c([N+](=O)[O-])c1 (configuration not stated)
IC50 (SUMO-activating enzyme): > 100 µM (inactive)

COc1ccc(C(CCNCc2ccc(N(C)C)cc2)c2ccccc2OC)cc1 (configuration not stated)
EC50 [8]: 10.6 µM (active)
IC50 (Nonstructural protein 1): 20.2 µM (active)

Cc1cccc(Oc2coc3cc(OC(=O)c4cccs4)ccc3c2=O)c1
AC50 (Cytochrome P450 1A2): 14.1 µM (inconclusive)
AC50 (Cytochrome P450 2C9 [9]): inconclusive

CN1CCN(c2ncc3nc(-c4ccc(F)cc4)c(=O)n(Cc4cccs4)c3n2)CC1
AC50 (Cytochrome P450 2C19; read-out: AC50): 31.6 µM (inconclusive)
AC50 (Cytochrome P450 1A2): 25.1 µM (inconclusive)
AC50 (Cytochrome P450 2C9 [10]): 0.0126 µM (inconclusive)
AC50 (Cytochrome P450 3A4 [11]): inconclusive

CCCCn1c(SCC(=O)NC(C)(C)C)nnc1-c1ccco1
AC50 (Cytochrome P450 2D6): 12.6 µM (inconclusive)
AC50 (Cytochrome P450 1A2): 0.316 µM (inconclusive)
AC50 (Cytochrome P450 2C9 [10]): 0.0398 µM (inconclusive)
AC50 (Cytochrome P450 3A4 [11]): inconclusive

COc1cccc(OCC(=O)NN=C2c3ccccc3-c3ccccc32)c1
AC50 (Cytochrome P450 2C9 [9]): inconclusive

CCN(CC)c1ccc(NC(=O)c2ccccc2Br)cc1S(=O)(=O)Nc1ccccc1OC
IC50 [12]: 43.7 µM (active)
IC50 [1]: > 80 µM (inactive)

NNC(=O)CN1C(c2ccccc2Br)=Nc2ccc(Br)cc2C1c1ccccc1 (configuration not stated)
IC50 [1]: 15.3 µM (active)

NNc1nccc(Nc2ccccc2C(=O)O)n1
IC50 (Nonstructural protein 1): 8.21 µM (active)

CNc1oc(-c2cccs2)nc1C#N
AC50 (Cytochrome P450 3A4 [13]): 28.2 µM (inconclusive)
AC50 (Cytochrome P450 2C9 [9]): inconclusive

CC1(OC(=O)C2CCCC2)C(=O)C=C2C=C(c3ccsc3)N(CCc3c[nH]c4ccccc34)C=C2C1=O (configuration not stated)
IC50 [1]: 49.6 µM (inactive)

CCn1c(=O)cc(OCC(=O)Nc2ccc(OC)c(OC)c2)c2ccccc21
IC50 [14]: > 80 µM (inactive)

O=C(c1cnccn1)N1CCC2(CC1)CCN(c1ccccc1)CC2
AC50 (Cytochrome P450 3A4 [11]): inconclusive

O=C(Nc1nnc(-c2ccccc2SCc2ccccc2)s1)Nc1ccccc1F
IC50 (SUMO-activating enzyme): 46.5 µM (active)

CCCS(=O)(=O)c1ncc(Cl)c(C(=O)Nc2ccc(S(=O)(=O)Nc3ncccn3)cc2)n1
IC50 (Bcl-2-related protein A1): > 20 µM (inactive)
IC50 [2]: 14 µM (active)
IC50 [3]: > 20 µM (inactive)

CCCCCCCCCCC/C=C\C(C)(C)/C=C\CCCC(=O)O
AC50 (Cytochrome P450 2C19; read-out: AC50): 25.1 µM (inconclusive)
AC50 (Cytochrome P450 2C9 [10]): 15.8 µM (inconclusive)
AC50 (Cytochrome P450 3A4 [11]): inconclusive

CCc1cccc2c(C(=O)C(NC(C)CC)c3ccccc3)c[nH]c12 (configuration not stated)
IC50 (Bcl-2-related protein A1): > 20 µM (inactive)
IC50 [2]: 16.6 µM (active)
IC50 [3]: 9.25 µM (active)

Cc1ccc(NN=C2C(=O)NC(=O)NC2=O)c([N+](=O)[O-])c1
AC50 (Cytochrome P450 2C19): inconclusive
AC50 (Cytochrome P450 1A2): 17.8 µM (inconclusive)
AC50 (Cytochrome P450 2C9 [9]): inconclusive

CN1CC[C@@]2(C)c3cc(O)ccc3N(C)[C@@H]12
IC50 [1]: 42.6 µM (inactive)
IC50 (Genome polyprotein): 22.4 µM (active)

CSc1ccc(S(=O)(=O)Nc2ccc3c4c(cccc24)CC3)cc1
AC50 (Cytochrome P450 2D6): 14.1 µM (inconclusive)
AC50 (Cytochrome P450 2C9 [9]): inconclusive

— ChEMBL document CHEMBL1201862, “PubChem BioAssay data set” (2004)
